PMC6199279, “Design of Peptoid-peptide Macrocycles to Inhibit the β-catenin TCF Interaction in Prostate Cancer” (Nature Communications, 2018)
Read-outs that look alike come from different tables or passages of the source. Numbered stars: 1 amine (or outer) side, 2 acyl side, 3 side chain; on linkers, the order of the positions; unused ones are H or OH. Square brackets hold non-standard residues; d marks the D form. Peptide text beside a SMILES is read from it. N(2-(2-PhOPh)Et)Gly = O=C(O)CNCCc1ccccc1Oc1ccccc1; Gly(N-3,5-(OMe)2-Ph) = COc1cc(NCC(=O)O)cc(OC)c1; X1 = COc1ccc([C@H](C)N(CC(=O)[*:2])[*:1])cc1; N((CH2)3OiPr)Gly = CC(C)OCCCNCC(=O)O

Columns and labels:
[1] = target: T1, β-catenin:TCF4 protein interaction (Homo sapiens, UniProt P35222); assay: Co-immunoprecipitation of myc-TCF4 and endogenous β-catenin in HEK293 cells; format: cell-based; conditions: HEK293 cells with myc-TCF4, 10 µM, 48 h, vs vehicle
T1 construct: host or cells: HEK293
T1 sequence (P35222 2-781 limits assumed): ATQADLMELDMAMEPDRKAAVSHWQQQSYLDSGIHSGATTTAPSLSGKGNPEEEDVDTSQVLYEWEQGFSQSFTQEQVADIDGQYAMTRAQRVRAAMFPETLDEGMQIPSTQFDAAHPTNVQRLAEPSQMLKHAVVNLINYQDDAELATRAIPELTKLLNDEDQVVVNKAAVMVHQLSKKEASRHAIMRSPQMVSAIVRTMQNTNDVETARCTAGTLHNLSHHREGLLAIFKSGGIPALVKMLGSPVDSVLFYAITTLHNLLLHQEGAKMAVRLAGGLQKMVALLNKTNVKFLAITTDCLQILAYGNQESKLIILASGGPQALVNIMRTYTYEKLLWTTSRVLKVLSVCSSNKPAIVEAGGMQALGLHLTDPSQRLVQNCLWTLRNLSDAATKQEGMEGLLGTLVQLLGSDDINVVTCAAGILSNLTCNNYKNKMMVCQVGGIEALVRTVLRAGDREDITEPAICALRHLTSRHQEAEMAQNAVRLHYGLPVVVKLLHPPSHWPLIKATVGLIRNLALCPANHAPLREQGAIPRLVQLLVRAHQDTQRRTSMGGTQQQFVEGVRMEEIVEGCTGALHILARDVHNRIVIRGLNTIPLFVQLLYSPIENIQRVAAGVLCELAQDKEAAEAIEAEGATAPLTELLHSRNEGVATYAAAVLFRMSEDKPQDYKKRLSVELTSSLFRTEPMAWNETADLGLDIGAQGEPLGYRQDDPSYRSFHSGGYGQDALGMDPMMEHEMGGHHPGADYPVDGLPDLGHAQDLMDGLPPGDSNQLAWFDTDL
Method: We next characterized the dose response curves for compound 13 in the Wnt and AR luciferase reporters. The linear version of 13 (linear 13: NH2-|N-mpp, N-dmp, N-ipp, N-Smpe, N-Smpe, D-Ala|-OH) was used as a control compound. […] To test direct binding, we pre-formed dynamic light scattering (DLS) with β-catenin in the presence of vehicle, compound 13, and α-cyclodextrin. […] HEK293 cells were transiently transfected with a plasmid expressing full length, myc-tagged TCF4. After 48 h treatment with either vehicle (DMSO) or 10 µM 13, cells were lysed and myc-TCF4 protein was immunoprecipitated.
LNCaP-abl and LNCaP-95 cells were cultured in indicator free RPMI 1640 media (Life) supplemented with 10% charcoal stripped FBS, 1% pennicillin/streptomycin, and 1% L-Glutamine. HEK-293 Cells were cultured in DMEM media (Life) supplemented with 10%FBS and 1% pennicillin/streptomycin. A549 and U2OS cells were cultured in RPMI 1640 media (Life) and McCoy’s 5 A modified media (Life), respectively, both supplemented with 10%FBS and 1% pennicillin/streptomycin. […] Both were measured using the ONE-Glo detection kit (Promega) and data is standardized to CellTiter-Fluor (Promega) viability readings to account for potential variations in well to well cell number. […] Total protein concentration in cell lysates were determined using Pierce Rapid Gold BCA Protein Assay Kit (Thermo). […]

[2] = test system: U2OS (osteosarcoma) cells; assay: 2D proliferation (CellTiter-Fluor viability), U2OS; format: cell-based; conditions: Wnt-independent cell line, 5 days
LNCaP-abl spheroids = test system: LNCaP-abl spheroids
Method: To evaluate the impact of the compounds under 3D cell culture conditions thought to be more representative of tumors, we grew LNCaP-abl cells in low attachment plates. The effects on spheroid formation and growth were evaluated following treatment with vehicle, 13, or linear 13 administered at the time of seeding at low cell density in a 384-well plate. In a separate experiment, to test the impact on pre-formed spheroids, cells were treated 5 days after initial seeding. Spheroids from both experiments were grown for 22 days, with compound refreshed on days 5, 9, 13, 16, and 20. […] PrestoBlue was used to measure cell viability on day 22 (Fig. 5b). […] Figure 5c–f depicts spheroid area over time based on size measurements from the images taken throughout the experiment.
Scale bar represents 400 μm. b End point viability measurements taken on day 22 using PrestoBlue. c–f Time course of spheroid areas calculated from images taken throughout the experiment.
LNCaP-abl cells were seeded into 384-well ultra-low attachment plates (Corning), 1000 cells/well. Varying concentrations of compound were added either on the same day as seeding or on day 5. Media was changed every 3–4 days using a Biotek automated media exchanger. Images were taken using an ArraySca VTI (Cellomics) on days 5, 9, 13, 16, 20, and 22. Images were analyzed for spheroid area with the HCS Studio Cellomics Scan Version 6.6.0 (Thermo) software. A final viability measurement was taken on day 22 using PrestoBlue reagent (Thermo).

[3] = test system: Wnt signaling in zebrafish embryos; conditions: zebrafish, in vivo
Method: To evaluate the efficacy of 13 in vivo, we utilized a Danio rerio (zebrafish) model. […] To test this, BIO was added to zebrafish embryos at 6 hpf with and without 13 as described in Fig. 6a.
The zebrafish phenotypic assay was conducted using wild-type zebrafish embryos seeded into a 96-well round bottom plate at 4 hpf in 50 µl of Fish Water (60 mg/l sea salt, Instant Ocean, Blacksburg, VA, USA) supplemented with 1 mg per L Methylene Blue (Sigma-Aldrich). The embryos were not dechorionated. At 50% epiboly, roughly 5.5 hpf, 50 µl of 30 µM 13 or Linear 13 was added. About 30 min later at shield stage, 50 µl of 6 nM (3×) BIO was added. The embryos were then visualized for the presence of eyes and imaged at 30 hpf. Zebrafish embryos were randomly assigned to non-blinded treatment groups, none were excluded. Sample size was determined with a power calculation to achieve statistical significance (alpha = 0.05, beta = 0.2) if only 60% of the fish had developed eyes.

Question: For COc1ccc([C@H](C)N2CC(=O)N[C@H](C)C(=O)N(CCc3ccccc3Oc3ccccc3)CC(=O)N(c3cc(OC)cc(OC)c3)CC(=O)N(CCCOC(C)C)CC(=O)N([C@@H](C)c3ccc(OC)cc3)CC2=O)cc1 [Compound 13] (cyclo([dA][N(2-(2-PhOPh)Et)Gly][Gly(N-3,5-(OMe)2-Ph)][N((CH2)3OiPr)Gly][X1][X1])), which “β-catenin:TCF association (co-immunoprecipitated β-catenin)” value [1] is on record?
Answer: decreased

Question: What about the “Effect on proliferation of U2OS cells” value [2] of the same compound?
Answer: no effect

Question: And the “Spheroid growth, compound added day 0” value (LNCaP-abl spheroids; 0.5 µM)?
Answer: slowed growth

Question: And the “Spheroid formation, compound added day 0” value (LNCaP-abl spheroids; 20 µM, 10 µM, 5 µM, 2 µM and 1 µM)?
Answer: prevented spheroid formation

Question: And the “Growth of pre-formed spheroids, treatment started day 5” value (LNCaP-abl spheroids; at or above 2 µM)?
Answer: stalled the growth of pre-formed spheroids

Question: What about the “Spheroid growth, low concentrations” value (LNCaP-abl spheroids; between 0.001 µM and 0.1 µM) of the same compound?
Answer: little effect

Question: What about the IC50 (LNCaP-abl spheroids; read-out: IC50 spheroid proliferation, treatment started Day 0, PrestoBlue viability on day 22, compound added at seeding) of the same compound?
Answer: 694 nM

Question: What about the IC50 (LNCaP-abl spheroids; read-out: IC50 spheroid proliferation, treatment started Day 5, PrestoBlue viability on day 22, pre-formed spheroids) of the same compound?
Answer: 1340 nM

Question: And the “Harm to embryo development” value [3]?
Answer: does not otherwise harm embryo development
